Results taken from US10676465B2, “GLP-1 receptor agonists and uses thereof” (Pfizer Inc., priority 2018, dated 2020).

Tests used:
human GLP-1R [1] = molecular target: human GLP-1R (Homo sapiens, UniProt P43220, G168S); assay: CHO GLP-1R Clone H6 - Assay 1 (HTRF cAMP agonist assay); type: cell-based; settings: for EC50: CHO GLP-1R Clone H6, cAMP HTRF, geometric mean; for Emax / Assay 1 Emax (%): CHO GLP-1R Clone H6, arithmetic mean, relative to saturating GLP-1 (1 μM)
human GLP-1R [2] = molecular target: human GLP-1R (Homo sapiens (Human), UniProt P43220, L260F); assay: CHO GLP-1R Clone C6 - Assay 2 (HTRF cAMP agonist assay, low receptor density); settings: for EC50: read-out: Assay 2 EC50, cAMP HTRF, geometric mean; for Emax: read-out: Assay 2 Emax (%), CHO GLP-1R Clone C6 (low receptor density)
Sequence of human GLP-1R (Homo sapiens (Human), UniProt P43220, L260F) (P43220 24-463 L260F): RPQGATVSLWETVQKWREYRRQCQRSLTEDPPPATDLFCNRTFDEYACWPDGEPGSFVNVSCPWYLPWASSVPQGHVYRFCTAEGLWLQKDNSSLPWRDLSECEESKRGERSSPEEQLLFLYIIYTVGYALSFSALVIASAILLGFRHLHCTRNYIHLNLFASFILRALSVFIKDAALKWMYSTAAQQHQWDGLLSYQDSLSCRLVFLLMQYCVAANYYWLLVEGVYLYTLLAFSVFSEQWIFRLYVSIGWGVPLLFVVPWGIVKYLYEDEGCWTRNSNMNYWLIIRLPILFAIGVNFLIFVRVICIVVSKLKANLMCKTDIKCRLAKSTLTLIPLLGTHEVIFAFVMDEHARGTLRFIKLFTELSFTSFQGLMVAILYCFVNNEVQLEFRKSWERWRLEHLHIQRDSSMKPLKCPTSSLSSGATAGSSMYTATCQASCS
Procedure: CHO GLP-1R Clone C6—Assay 2
GLP-1R-mediated agonist activity was determined with a cell-based functional assay utilizing an HTRF (Homogeneous Time-Resolved Fluorescence) cAMP detection kit (cAMP HI Range Assay Kit; Cis Bio cat #62AM6PEJ) that measures cAMP levels in the cell. The method is a competitive immunoassay between native cAMP produced by the cells and exogenous cAMP labeled with the dye d2. The tracer binding is visualized by a mAb anti-cAMP labeled with Cryptate. The specific signal (i.e. energy transfer) is inversely proportional to the concentration of cAMP in either a standard or an experimental sample.
The human GLP-1R coding sequence (NCBI Reference Sequence NP_002053.3, including naturally-occurring variant Leu260Phe) was subcloned into pcDNA5-FRT-TO and a clonal CHO cell line stably expressing a low receptor density was isolated using the Flp-In™ T-Rex™ System, as described by the manufacturer (ThermoFisher).
Cells were removed from cryopreservation, re-suspended in 40 mL of Dulbecco's Phosphate Buffered Saline (DPBS—Lonza Cat #17-512Q) and centrifuged at 800×g for 5 minutes at 22° C. The DPBS was aspirated, and the cell pellet was re-suspended in 10 mL of complete growth medium (DMEM:F12 1:1 Mixture with HEPES, L-Gln, 500 mL (DMEM/F12 Lonza Cat #12-719F), 10% heat inactivated fetal bovine serum (Gibco Cat #16140-071), 5 mL of 100× Pen-Strep (Gibco Cat #15140-122), 5 mL of 100×L-Glutamine (Gibco Cat #25030-081), 700 μg/mL Hygromycin (Invitrogen Cat #10687010) and 15 μg/mL Blasticidin (Gibco Cat # R21001). A 1 mL sample of the cell suspension in growth media was counted on a Becton Dickinson ViCell to determine cell viability and cell count per mL. The remaining cell suspension was then adjusted with growth media to deliver 1600 viable cells per well using a Matrix Combi Multidrop reagent dispenser, and the cells were dispensed into a white 384 well tissue culture treated assay plate (Corning 3570). The assay plate was then incubated for 48 hours at 37° C. in a humidified environment (95% O2, 5% CO2)
Varying concentrations of each compound to be tested (in DMSO) were diluted in assay buffer [HBSS with Calcium/Magnesium (Lonza/BioWhittaker cat #10-527F)/0.1% BSA (Sigma Aldrich cat # A7409-1L)/20 mM HEPES (Lonza/BioWhittaker cat #17-737E)] containing 100 μM 3-isobutyl-1-methylxanthin (IBMX; Sigma cat #15879). The final DMSO concentration in the compound/assay buffer mixture is 1%.
After 48 hours, the growth media was removed from the assay plate wells, and the cells were treated with 20 μL of the serially diluted compound in assay buffer for 30 minutes at 37° C. in a humidified environment (95% O2, 5% CO2). Following the 30 minute incubation, 10 μL of labeled d2 cAMP and 10 μL of anti-cAMP antibody (both diluted 1:20 in cell lysis buffer; as described in the manufacturer's assay protocol) were added to each well of the assay plate. The plates were then incubated at room temperature and after 60 minutes, changes in the HTRF signal were read with an Envision 2104 multi-label plate reader using excitation of 330 nm and emissions of 615 and 665 nm. Raw data were converted to nM cAMP by interpolation from a cAMP standard curve (as described in the manufacturer's assay protocol) and the percent effect was determined relative to a saturating concentration of the full agonist GLP-1 (1 μM) included on each plate. EC50 determinations were made from agonist dose response curves analyzed with a curve fitting program using a 4-parameter logistic dose response equation.

[3] = CHO GLP-1R Clone C6 (low receptor density)
[4] = arithmetic mean, relative to saturating GLP-1 (1 μM)

Sequence of human GLP-1R (Homo sapiens, UniProt P43220, G168S) (P43220 24-463 G168S limits assumed): as the sequence (P43220 24-463 L260F) above, with G145S, F237L counted along it

EC50 (human GLP-1R [1]) [nM]	Emax (human GLP-1R [1]) [%]	EC50 (human GLP-1R [2]; [3]) [nM]	Emax (human GLP-1R [2]; [4]) [%]	Assay 1 Emax (%) (human GLP-1R [1])	Assay 2 Emax (%) (human GLP-1R [2]; CHO GLP-1R Clone C6 (low receptor density), arithmetic mean, relative to saturating GLP-1 (1 μM))	SMILES
14000	100	> 20000				COCCn1c(CN2CCC(c3cccc4c3OC(C)(c3ccc(Cl)cn3)O4)CC2)nc2ccc(C(=O)O)cc21 (centres unmarked) [Example 91, ammonium 2-({4-[2-(5-chloropyridin-2-yl)-2-methyl-1,3-benzodioxol-4-yl]piperidin-1-yl}methyl)-1-(2-methoxyethyl)-1H-benzimidazole-6-carboxylate]
4.2		72	83	90		COCCn1c(CN2CCC(c3cccc4c3OC(C)(c3ccc(Cl)cn3)O4)CC2)nc2ccc(C(=O)O)cc21.N (centres unmarked) [Example 92, ammonium 2-({4-[2-(5-chloropyridin-2-yl)-2-methyl-1,3-benzodioxol-4-yl]piperidin-1-yl}methyl)-1-(2-methoxyethyl)-1H-benzimidazole-6-carboxylate]
> 6500	84	> 20000				COCCn1c(CN2CCC(c3cccc4c3OC(C)(c3ccc(C#N)cn3)O4)CC2)nc2ccc(C(=O)O)cc21 (centres unmarked) [Example 93, ammonium 2-({4-[2-(5-cyanopyridin-2-yl)-2-methyl-1,3-benzodioxol-4-yl]piperidin-1-yl}methyl)-1-(2-methoxyethyl)-1H-benzimidazole-6-carboxylate]
12		360	87			COCCn1c(CN2CCC(c3cccc4c3OC(C)(c3ccc(C#N)cn3)O4)CC2)nc2ccc(C(=O)O)cc21 (centres unmarked) [Example 94, ammonium 2-({4-[2-(5-cyanopyridin-2-yl)-2-methyl-1,3-benzodioxol-4-yl]piperidin-1-yl}methyl)-1-(2-methoxyethyl)-1H-benzimidazole-6-carboxylate]
50	97	440	95			CC1(c2ccc(C#N)cc2F)Oc2cccc(C3CCN(Cc4nc5ccc(C(=O)O)cc5n4Cc4ncco4)CC3)c2O1 (centres unmarked) [Example 98, ammonium 2-({4-[2-(4-cyano-2-fluorophenyl)-2-methyl-1,3-benzodioxol-4-yl]piperidin-1-yl}methyl)-1-(1,3-oxazol-2-ylmethyl)-1H-benzimidazole-6-carboxylate]
2.8		5.4		99	91	CC1(c2ccc(C#N)cc2F)Oc2cccc(C3CCN(Cc4nc5ccc(C(=O)O)cc5n4Cc4ncco4)CC3)c2O1.N (centres unmarked) [Example 99, ammonium 2-({4-[2-(4-cyano-2-fluorophenyl)-2-methyl-1,3-benzodioxol-4-yl]piperidin-1-yl}methyl)-1-(1,3-oxazol-2-ylmethyl)-1H-benzimidazole-6-carboxylate]

More lines, now with the values behind:

SMILES	EC50 (human GLP-1R [1]) [nM]	Emax (human GLP-1R [1]) [%]	EC50 (human GLP-1R [2]; [3]) [nM]	Emax (human GLP-1R [2]; [4]) [%]	Assay 1 Emax (%) (human GLP-1R [1])	Assay 2 Emax (%) (human GLP-1R [2]; CHO GLP-1R Clone C6 (low receptor density), arithmetic mean, relative to saturating GLP-1 (1 μM))
CC1(c2ccc(Cl)cc2F)Oc2cccc(C3CCN(Cc4nc5ccc(C(=O)O)cc5n4Cc4ncco4)CC3)c2O1 (centres unmarked) [Example 80, 2-({4-[2-(4-chloro-2-fluorophenyl)-2-methyl-1,3-benzodioxol-4-yl]piperidin-1-yl}methyl)-1-(1,3-oxazol-2-ylmethyl)-1H-benzimidazole-6-carboxylic acid]	1.1	87	6.9	96		
CC1(c2ccc(Cl)cc2F)Oc2cccc(C3CCN(Cc4nc5ccc(C(=O)O)nc5n4Cc4cnco4)CC3)c2O1 (centres unmarked) [Example 81, 2-({4-[2-(4-chloro-2-fluorophenyl)-2-methyl-1,3-benzodioxol-4-yl]piperidin-1-yl}methyl)-3-(1,3-oxazol-5-ylmethyl)-3H-imidazo[4,5-b]pyridine-5-carboxylic acid]	29	110	54	110		
COCCn1c(CN2CCC(c3cccc4c3OC(C)(c3ccccc3)O4)CC2)nc2ccc(C(=O)O)cc21 (centres unmarked) [Example 82, 1-(2-methoxyethyl)-2-{[4-(2-methyl-2-phenyl-1,3-benzodioxol-4-yl)piperidin-1-yl]methyl}-1H-benzimidazole-6-carboxylic acid]	47	83	1000	83		
COCCn1c(CN2CCC(c3cccc4c3OC(C)(c3ccc(OC)cc3Cl)O4)CC2)nc2ccc(C(=O)O)cc21 (centres unmarked) [Example 83, 2-({4-[2-(2-chloro-4-methoxyphenyl)-2-methyl-1,3-benzodioxol-4-yl]piperidin-1-yl}methyl)-1-(2-methoxyethyl)-1H-benzimidazole-6-carboxylic acid]	3.4	85	44	88		
COCCn1c(CN2CCC(c3cccc4c3OC(C)(c3ccc(C)cc3)O4)CC2)nc2ccc(C(=O)O)cc21 (centres unmarked) [Example 84, 1-(2-methoxyethyl)-2-({4-[2-methyl-2-(4-methylphenyl)-1,3-benzodioxol-4-yl]piperidin-1-yl}methyl)-1H-benzimidazole-6-carboxylic acid]	9.1	93	100	86		
COCCn1c(CN2CCC(c3cccc4c3OC(C)(c3ccccc3Cl)O4)CC2)nc2ccc(C(=O)O)cc21 (centres unmarked) [Example 86, 2-({4-[2-(2-chlorophenyl)-2-methyl-1,3-benzodioxol-4-yl]piperidin-1-yl}methyl)-1-(2-methoxyethyl)-1H-benzimidazole-6-carboxylic acid]	24	91	410	100		
COCCn1c(CN2CCC(c3cccc4c3OC(C)(c3ccccc3C)O4)CC2)nc2ccc(C(=O)O)cc21 (centres unmarked) [Example 88, 1-(2-methoxyethyl)-2-({4-[2-methyl-2-(2-methylphenyl)-1,3-benzodioxol-4-yl]piperidin-1-yl}methyl)-1H-benzimidazole-6-carboxylic acid]	17	86	360	91		
COCCn1c(CN2CCC(c3cccc4c3OC(C)(c3ccccn3)O4)CC2)nc2ccc(C(=O)O)cc21 (centres unmarked) [Example 89, 1-(2-methoxyethyl)-2-({4-[2-methyl-2-(pyridin-2-yl)-1,3-benzodioxol-4-yl]piperidin-1-yl}methyl)-1H-benzimidazole-6-carboxylic acid]	130	85	2900	87		
